# Measurements: patent US20240246964A1 (Arbutus Biopharma Corporation, priority 2021, published 2024)
# Columns and labels:
# [1] = molecular target: PD-L1 His protein / PD-1 Fc protein (Homo sapiens (Human), UniProt Q9NZQ7); test: HTRF Assay (PD-1/PD-L1 interaction); assay type: binding; settings: PD-L1 His 6 nM, PD-1 Fc 6 nM
# human PD-L1 = human PD-L1 (Homo sapiens (Human), UniProt Q9NZQ7); test: T cell activation luciferase reporter cell culture system (T Cell Activation Assay); assay type: cell-based; settings: luciferase reporter assay; PD-L1 aAPC/CHO-K1 cells with PD-1 effector Jurkat T cells
# Sequence of human PD-L1 (Q9NZQ7 19-290): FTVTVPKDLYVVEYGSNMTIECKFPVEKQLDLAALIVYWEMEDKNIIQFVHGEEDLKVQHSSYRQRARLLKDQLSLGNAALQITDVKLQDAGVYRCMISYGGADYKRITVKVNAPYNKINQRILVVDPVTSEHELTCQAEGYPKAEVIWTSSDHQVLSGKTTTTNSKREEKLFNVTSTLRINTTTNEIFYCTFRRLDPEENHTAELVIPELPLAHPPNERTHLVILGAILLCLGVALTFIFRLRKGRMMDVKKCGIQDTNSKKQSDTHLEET
# Sequence of PD-L1 His protein / PD-1 Fc protein (Q9NZQ7 19-238): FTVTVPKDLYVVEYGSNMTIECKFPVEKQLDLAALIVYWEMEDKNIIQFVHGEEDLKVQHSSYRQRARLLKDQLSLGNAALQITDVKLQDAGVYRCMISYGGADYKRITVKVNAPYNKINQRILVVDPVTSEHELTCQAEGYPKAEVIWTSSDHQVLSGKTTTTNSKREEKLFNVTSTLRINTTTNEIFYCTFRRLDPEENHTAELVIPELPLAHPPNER
Compound,IC50 [1] [nM],EC50 (human PD-L1) [nM]
"COc1nc(-c2cccc(-c3ccnc(-c4ccc5c(CNC6CCN(C(C)=O)CC6)cn(C)c5c4)c3Cl)c2Cl)ccc1CNC[C@@H]1CCC(=O)N1 [Compound 28, (S)-5-((((6-(3-(2-(3-(((1-acetylpiperidin-4-yl)amino)methyl)-1-methyl-1H-indol-6-yl)-3-chloropyridin-4-yl)-2-chlorophenyl)-2-methoxypyridin-3-yl)methyl)amino)methyl)pyrrolidin-2-one]",1.2,48.4
"COc1nc(-c2cccc(-c3ccnc(-c4ccc5c(CNCCO)cn(C)c5c4)c3Cl)c2Cl)ccc1CNC[C@@H]1CCC(=O)N1 [Compound 29, (S)-5-((((6-(2-chloro-3-(3-chloro-2-(3-(((2-hydroxyethyl)amino)methyl)-1-methyl-1H-indol-6-yl)pyridin-4-yl)phenyl)-2-methoxypyridin-3-yl)methyl)amino)methyl)pyrrolidin-2-one]",1.1,94
"COCCNCc1cn(C)c2cc(-c3nccc(-c4cccc(-c5ccc(CNC[C@@H]6CCC(=O)N6)c(OC)n5)c4Cl)c3Cl)ccc12 [Compound 30, (S)-5-((((6-(2-chloro-3-(3-chloro-2-(3-(((2-methoxyethyl)amino)methyl)-1-methyl-1H-indol-6-yl)pyridin-4-yl)phenyl)-2-methoxypyridin-3-yl)methyl)amino)methyl)pyrrolidin-2-one]",15.4,100
"CNCc1cn(C)c2cc(-c3nccc(-c4cccc(-c5ccc(CNC[C@@H]6CCC(=O)N6)c(OC)n5)c4Cl)c3Cl)ccc12 [Compound 31, (S)-5-((((6-(2-chloro-3-(3-chloro-2-(1-methyl-3-((methylamino)methyl)-1H-indol-6-yl)pyridin-4-yl)phenyl)-2-methoxypyridin-3-yl)methyl)amino)methyl)pyrrolidin-2-one]",0.3,134
"CCNCc1cn(C)c2cc(-c3nccc(-c4cccc(-c5ccc(CNC[C@@H]6CCC(=O)N6)c(OC)n5)c4Cl)c3Cl)ccc12 [Compound 32, (S)-5-((((6-(2-chloro-3-(3-chloro-2-(3-((ethylamino)methyl)-1-methyl-1H-indol-6-yl)pyridin-4-yl)phenyl)-2-methoxypyridin-3-yl)methyl)amino)methyl)pyrrolidin-2-one]",0.7,261
"COc1nc(-c2cccc(-c3ccnc(-c4ccc5c(CN(C)C)cn(C)c5c4)c3Cl)c2Cl)ccc1CNC[C@@H]1CCC(=O)N1 [Compound 33, (S)-5-((((6-(2-chloro-3-(3-chloro-2-(3-((dimethylamino)methyl)-1-methyl-1H-indol-6-yl)pyridin-4-yl)phenyl)-2-methoxypyridin-3-yl)methyl)amino)methyl)pyrrolidin-2-one]",0.4,224
"COc1nc(-c2cccc(-c3ccnc(-c4ccc5c(CNC[C@@H]6CCO6)cn(C)c5c4)c3Cl)c2Cl)ccc1CNC[C@@H]1CCC(=O)N1 [Compound 34, (S)-5-((((6-(2-chloro-3-(3-chloro-2-(1-methyl-3-(((((S)-oxetan-2-yl)methyl)amino)methyl)-1H-indol-6-yl)pyridin-4-yl)phenyl)-2-methoxypyridin-3-yl)methyl)amino)methyl)pyrrolidin-2-one]",72.1,122
"COc1nc(-c2cccc(-c3ccnc(-c4ccc5c(CNC[C@H](C)O)cn(C)c5c4)c3Cl)c2Cl)ccc1CNC[C@@H]1CCC(=O)N1 [Compound 35, (S)-5-((((6-(2-chloro-3-(3-chloro-2-(3-((((S)-2-hydroxypropyl)amino)methyl)-1-methyl-1H-indol-6-yl)pyridin-4-yl)phenyl)-2-methoxypyridin-3-yl)methyl)amino)methyl)pyrrolidin-2-one]",1.1,855
"COc1nc(-c2cccc(-c3ccnc(-c4ccc5c(CNCC(C)(C)O)cn(C)c5c4)c3Cl)c2Cl)ccc1CNC[C@@H]1CCC(=O)N1 [Compound 36, (S)-5-((((6-(2-chloro-3-(3-chloro-2-(3-(((2-hydroxy-2-methylpropyl)amino)methyl)-1-methyl-1H-indol-6-yl)pyridin-4-yl)phenyl)-2-methoxypyridin-3-yl)methyl)amino)methyl)pyrrolidin-2-one]",3.4,82.1
"COc1nc(-c2cccc(-c3ccnc(-c4ccc5c(CNCC(C)C)cn(C)c5c4)c3Cl)c2Cl)ccc1CNC[C@@H]1CCC(=O)N1 [Compound 38, (S)-5-((((6-(2-chloro-3-(3-chloro-2-(3-((isobutylamino)methyl)-1-methyl-1H-indol-6-yl)pyridin-4-yl)phenyl)-2-methoxypyridin-3-yl)methyl)amino)methyl)pyrrolidin-2-one]",116,369
"COc1nc(-c2cccc(-c3ccnc(-c4ccc5c(CN(C)CCO)cn(C)c5c4)c3Cl)c2Cl)ccc1CNC[C@@H]1CCC(=O)N1 [Compound 39, (S)-5-((((6-(2-chloro-3-(3-chloro-2-(3-(((2-hydroxyethyl)(methyl)amino)methyl)-1-methyl-1H-indol-6-yl)pyridin-4-yl)phenyl)-2-methoxypyridin-3-yl)methyl)amino)methyl)pyrrolidin-2-one]",1,61.8
"COc1nc(-c2cccc(-c3ccnc(-c4ccc5c(CNC[C@H](C)OC)cn(C)c5c4)c3Cl)c2Cl)ccc1CNC[C@@H]1CCC(=O)N1 [Compound 40, (S)-5-((((6-(2-chloro-3-(3-chloro-2-(3-((((S)-2-methoxypropyl)amino)methyl)-1-methyl-1H-indol-6-yl)pyridin-4-yl)phenyl)-2-methoxypyridin-3-yl)methyl)amino)methyl)pyrrolidin-2-one]",10.3,4150
"COc1nc(-c2cccc(-c3ccnc(-c4ccc5c(CNC[C@@H]6CCCO6)cn(C)c5c4)c3Cl)c2Cl)ccc1CNC[C@@H]1CCC(=O)N1 [Compound 41, (S)-5-((((6-(2-chloro-3-(3-chloro-2-(1-methyl-3-(((((S)-tetrahydrofuran-2-yl)methyl)amino)methyl)-1H-indol-6-yl)pyridin-4-yl)phenyl)-2-methoxypyridin-3-yl)methyl)amino)methyl)pyrrolidin-2-one]",33.9,164
"COc1nc(-c2cccc(-c3ccnc(-c4ccc5c(CNC6CCOCC6)cn(C)c5c4)c3Cl)c2Cl)ccc1CNC[C@@H]1CCC(=O)N1 [Compound 42, (S)-5-((((6-(2-chloro-3-(3-chloro-2-(1-methyl-3-(((tetrahydro-2H-pyran-4-yl)amino)methyl)-1H-indol-6-yl)pyridin-4-yl)phenyl)-2-methoxypyridin-3-yl)methyl)amino)methyl)pyrrolidin-2-one]",0.1,88.6
"COc1nc(-c2cccc(-c3ccnc(-c4ccc5c(CNC6CCS(=O)(=O)CC6)cn(C)c5c4)c3Cl)c2Cl)ccc1CNC[C@@H]1CCC(=O)N1 [Compound 43, (S)-5-((((6-(2-chloro-3-(3-chloro-2-(3-(((1,1-dioxidotetrahydro-2H-thiopyran-4-yl)amino)methyl)-1-methyl-1H-indol-6-yl)pyridin-4-yl)phenyl)-2-methoxypyridin-3-yl)methyl)amino)methyl)pyrrolidin-2-one]",0.2,62.5
"COc1nc(-c2cccc(-c3ccnc(-c4cc5c(=O)n(C)c(CN6CC7(CC(O)C7)C6)nn5c4)c3Cl)c2Cl)ccc1CNC[C@@H]1CCC(=O)N1 [Compound 48, (S)-6-(3-chloro-4-(2-chloro-3-(6-methoxy-5-((((5-oxopyrrolidin-2-yl)methyl)amino)methyl)pyridin-2-yl)phenyl)pyridin-2-yl)-2-((6-hydroxy-2-azaspiro[3.3]heptan-2-yl)methyl)-3-methylpyrrolo[2,1-f][1,2,4]triazin-4(3H)-one]",0.04,18.7
"COc1nc(-c2cccc(-c3ccnc(-c4cnc5cc(CNC[C@@H]6CCC(=O)N6)ccc5c4)c3Cl)c2Cl)ccc1CNC[C@@H]1CCC(=O)N1 [Compound 52, (S)-5-((((6-(2-chloro-3-(3-chloro-2-(7-(((((S)-5-oxopyrrolidin-2-yl)methyl)amino)methyl)quinolin-3-yl)pyridin-4-yl)phenyl)-2-methoxypyridin-3-yl)methyl)amino)methyl)pyrrolidin-2-one]",0.2,127
"COc1nc(-c2cccc(-c3ccnc(-c4ccc5c(CNC6CN(C(C)=O)C6)cn(C)c5c4)c3Cl)c2Cl)ccc1CNC[C@@H]1CCC(=O)N1 [Compound 55, (S)-5-((((6-(3-(2-(3-(((1-acetylazetidin-3-yl)amino)methyl)-1-methyl-1H-indol-6-yl)-3-chloropyridin-4-yl)-2-chlorophenyl)-2-methoxypyridin-3-yl)methyl)amino)methyl)pyrrolidin-2-one]",4.9,127
"COc1nc(-c2cccc(-c3ccnc(-c4ccc5c(CN(C)C6CCN(C(C)=O)CC6)cn(C)c5c4)c3Cl)c2Cl)ccc1CNC[C@@H]1CCC(=O)N1 [Compound 56, (S)-5-((((6-(3-(2-(3-(((1-acetylpiperidin-4-yl)(methyl)amino)methyl)-1-methyl-1H-indol-6-yl)-3-chloropyridin-4-yl)-2-chlorophenyl)-2-methoxypyridin-3-yl)methyl)amino)methyl)pyrrolidin-2-one]",4,36.8
"COc1nc(-c2cccc(-c3ccnc(-c4ccc5c(c4)CN(CCNC[C@@H]4CCC(=O)N4)C5=O)c3Cl)c2Cl)ccc1CNC[C@@H]1CCC(=O)N1 [Compound 66, 5-(3-chloro-4-(2-chloro-3-(6-methoxy-5-(((((S)-5-oxopyrrolidin-2-yl)methyl)amino)methyl)pyridin-2-yl)phenyl)pyridin-2-yl)-2-(2-((((S)-5-oxopyrrolidin-2-yl)methyl)amino)ethyl)isoindolin-1-one]",0.6,158
"COc1nc(-c2cccc(-c3ccnc(-c4ccc5c(CNC6CCC(F)(F)CC6)cn(C)c5c4)c3Cl)c2Cl)ccc1CNC[C@@H]1CCC(=O)N1 [Compound 73, (S)-5-((((6-(2-chloro-3-(3-chloro-2-(3-(((4,4-difluorocyclohexyl)amino)methyl)-1-methyl-1H-indol-6-yl)pyridin-4-yl)phenyl)-2-methoxypyridin-3-yl)methyl)amino)methyl)pyrrolidin-2-one]",0.9,184
